Tests used:
[1] = test system: HIV-1 BaL; experiment: TZM-bl antiviral assay, wild type HIV-1 Ba-L; format: cell-based; conditions: Human immunodeficiency virus 1, BAL; TZM-bl cells, Ba-L wild type; read-out: Antiviral activity-wild type viruses EC50 TZM-bI Ba-L
Experimental: (§1) The JC53-BL cell line, also known as the TZM-bl cell line (NIH AIDS Research and Reference Reagent Program, Germantown, USA), was used for the evaluation of anti-HIV activity. TZM-bl cells were cultured in Dulbecco's […] (DMEM) (Lonza) containing 10% heat-inactivated FBS and 50 μg gentamycin/mL at 37° C. in a humidified 5% CO2, 95% air environment. Twice a week the cells were treated with 0.25% trypsin-1 mM EDTA (Lonza) for 10 minutes. The resulting cell suspension was washed with an equivalent amount of TZM-bl medium and subsequently seeded in a T75 culture flask (Greiner Bio-One, Germany) at 10^6 cells in 20 mL medium.
(§2) The antiviral activity of the newly designed compounds was measured by pre-incubating ten thousand TZM-bl cells (at 10^5 cells/mL in culture medium supplemented with 30 μg/mL DEAE dextran) in a 96-well plate for 30 minutes at 37° C., 5% CO2 in the presence or absence of serial dilutions of the respective compound. Subsequently, 200 TCID50 of HIV-1 BaL was added to each well and cultures were incubated for 48 hours before quantifying luciferase activity, using a TriStar LB941 luminometer (Berthold Technologies GmbH & Co. KG, Bad Wildbad, Germany). Each condition was evaluated in triplicate wells and in at least two independent experiments. The antiviral activity of the compound was expressed as the percentage of viral inhibition compared to the untreated controls and subsequently plotted against the compound concentration.
(§3) The target compounds are evaluated for their anti-HIV-1 activity and cytotoxicity. In a primary screen, the anti-HIV activity against the laboratory strain Ba-L and against a primary subtype C isolate was determined in the TZM-bl cell line. Cellular toxicity on TZM-bl cells was evaluated using WST-1. […] In addition, the activity against NNRTI-resistant viruses (V106A, Y181C, L100I+K103N, L100I+E138K+T369I and K101E+K103N+V108VI+V179M+Y181C+E138Q) was tested. Diarylpyrimidines (DAPY) TMC120, TMC125 and TMC278 were used as reference compounds.

[2] = test system: VI829; experiment: TZM-bl antiviral assay, wild type VI829 (primary subtype C isolate); format: cell-based, HIV-1; conditions: Human immunodeficiency virus 1; TZM-bl cells, VI829 wild type; read-out: Antiviral activity-wild type viruses EC50 TZM-bI VI829
Experimental: as §1, §2, §3

[3] = test system: HIV-1 Ba-L; experiment: Antiviral activity in peripheral blood mononuclear cells (PBMC), Ba-L; format: cell-based; conditions: Human immunodeficiency virus 1, BAL, Ba-L wild type, read-out: Antiviral activity-wild type viruses EC50 PBMC Ba-L
[4] = test system: HIV-1 Ba-L; experiment: Antiviral activity in dendritic cells / CD4+ T lymphocytes (DC/T4), Ba-L; format: cell-based; conditions: Human immunodeficiency virus 1, BAL; DC/T4, Ba-L wild type; read-out: Antiviral activity-wild type viruses EC50 DC/T4 Ba-L
[5] = test system: Ba-L V106A; experiment: Antiviral activity, NNRTI-resistant virus V106A; format: cell-based, HIV-1; conditions: for FC (V106A): Ba-L V106A; for EC50: Human immunodeficiency virus 1, BAL, read-out: Antiviral activity-NNRTI-resistant viruses EC50 Ba-L V106A
Experimental: as §3

[6] = test system: VI829 Y181C; experiment: Antiviral activity, NNRTI-resistant virus Y181C; format: cell-based, HIV-1; conditions: for EC50: Human immunodeficiency virus 1, read-out: Antiviral activity-NNRTI-resistant viruses EC50 VI829 Y181C; for FC (Y181C): VI829 Y181C
Experimental: as §3

[7] = test system: VI829 L100I+K103N; experiment: Antiviral activity, NNRTI-resistant virus L100I+K103N; format: cell-based, HIV-1; conditions: for EC50: Human immunodeficiency virus 1, read-out: Antiviral activity-NNRTI-resistant viruses EC50 VI829 L100I+K103N; for FC (L100I+K103N): VI829 L100I+K103N
Experimental: as §3

[8] = test system: Ba-L K101E + K103N + V108VI + V179M + Y181C + E138Q; experiment: Antiviral activity, NNRTI-resistant virus K101E+K103N+V108VI+V179M+Y181C+E138Q; format: cell-based, HIV-1; conditions: for FC (*): Ba-L, * = K101E + K103N + V108VI + V179M + Y181C + E138Q; for EC50: Human immunodeficiency virus 1, BAL, read-out: Antiviral activity-NNRTI-resistant viruses EC50 Ba-L *
Experimental: (§4) The target compounds are evaluated for their anti-HIV-1 activity and cytotoxicity. In a primary screen, the anti-HIV activity against the laboratory strain Ba-L and against a primary subtype C isolate was determined in the TZM-bl cell line. Cellular toxicity on TZM-bl cells was evaluated using WST-1. Based on the primary screening results, the target compound was further evaluated for anti-HIV activity in different primary cells, including peripheral blood mononuclear cells, dendritic cells and CD4+ T lymphocytes. In addition, the activity against NNRTI-resistant viruses (V106A, Y181C, L100I+K103N, L100I+E138K+T369I and K101E+K103N+V108VI+V179M+Y181C+E138Q) was tested. Diarylpyrimidines (DAPY) TMC120, TMC125 and TMC278 were used as reference compounds.

[9] = test system: VI829 L100I+E138K+T369I; experiment: Antiviral activity, NNRTI-resistant virus L100I+E138K+T369I; format: cell-based, HIV-1; conditions: for FC (**): VI829, ** = L1001 + E138K + T3691
Experimental: as §4

[10] = in vitro; format: cell-based; conditions: human, Cytotoxicity CC50 TZM-bI
Excerpt: (§5) The Water Soluble Tetrazolium-1 (WST-1) Cell Proliferation Assay is a colorimetric assay for the measurement of cell proliferation and viability. The assay is based on the cleavage of the tetrazolium salt WST-1 (4-[3-(4-iodophenyl)-2-(4-nitrophenyl)-2H-5-tetrazolio]-1,3-benzene disulfonate) to a formazan dye by a complex cellular mechanism. This bioreduction is largely dependent on the glycolytic production of NAD(P)H in viable cells. Therefore, the amount of formazan dye formed correlates directly to the number of viable cells in the culture, and can be quantified by measuring the absorbance at 450 nm in a multiwell plate reader. The greater the number of viable cells, the greater the amount of formazan dye produced following the addition of WST-1. Cytotoxicity of each compound was evaluated using this WST-1 viability assay, according to the manufacturer's instructions (Roche, Vilvoorde, Belgium).
(§6) Briefly, ten thousand TZM-bl cells were seeded in a 96-well plate and cultured for 2 days in the presence of a serial dilution of compound. After this 48 h exposure, Cell Proliferation Reagent, WST-1, was added and absorbance at 450 nm was quantified after 90 min using a microplate reader (BioRad, Tokio, Japan). Each compound was tested in three replicate wells and in at least two independent experiments.
as §3

[11] = Partition coefficient (Log D), octanol/PBS; format: physicochemical; conditions: octanol/PBS pH 7.4
Experimental: 10 mM stock solution (in DMSO) was prepared.
200 μM solution (in DMSO) was prepared from 10 mM stock solution.
A set of 5-10 dilutions (in MeOH) of each compound were prepared from 200 μM solution to give final test concentrations between 1 nm and 2 μM.
MS tuning was done for each compound to find the daughter peaks using 500 nm solution.
Calibration curve was made for each compound to evaluate the linearity of our method.
Octanol was first saturated with PBS and PBS was first saturated with octanol
20 μl of a 10 mM DMSO stock solution was added to 990 μl of PBS (pH 7.4) and then 990 μl of octanol was added. The experiment was done in duplicate. After two hours of shaking at 37° C. and keeping at room temperature for 30 minutes the two layers were separated. After separation, octanol layer was diluted further with MeOH and compound was quantified in both layers by UPLC (waters). The samples were analysed in triplicate.
Where: • ConcINITIAL=Concentration of compound in the initial aqueous solution (PBS) • ConcFINAL=Concentration of compound in final aqueous phase (PBS) • Vaq=Volume of aqueous (PBS) • Voct=Volume of octanol

[12] = test system: TZM-bl cells; experiment: in vitro; format: cell-based; conditions: human, 48 h
Excerpt: as §5, §6, §3

SMILES | EC50 [1] [nM] | EC50 [2] [nM] | EC50 [3] [nM] | EC50 [4] [nM] | FC (V106A) [5] | EC50 [5] [nM] | EC50 [6] [nM] | FC (Y181C) [6] | EC50 [7] [nM] | FC (L100I+K103N) [7] | FC (*) [8] | EC50 [8] [nM] | FC (**) [9] | CC50 at 48 h [10] [nM] | logD at 2 h [11] | activity against Efavirenz resistant viruses (L100I+K103N), in words ([7]; L100I+K103N) | activity against NNRTI-resistant virus K101E+K103N+V108VI+V179M+Y181C+E138Q, in words ([8]; K101E+K103N+V108VI+V179M+Y181C+E138Q) | activity against NNRTI-resistant virus L100I+E138K+T369I, in words ([9]; L100I+E138K+T369I) | CC50 [12] [nM]
Cc1cc(/C=C/C#N)cc(C)c1Nc1nc(N)nc(Nc2ccc(C#N)cc2)n1 [T2, (E)-4-(4-amino-6-(4-(2-cyanovinyl)-2,6-dimethylphenylamino)-1,3,5-triazin-2-ylamino)benzonitrile] | 1.3 | 1.3 | 5.3 | 0.51 | 1 | 1.9 | 2.6 | 2 | 6.8 | 5.2 | 18 | 23 | 68 | 24500 | 3.8 | – | – | – | –
Cc1cc(/C=C\C#N)cc(C)c1Nc1nc(N)nc(Nc2ccc(C#N)cc2)n1 [T3, (Z)-4-(4-amino-6-(4-(2-cyanovinyl)-2,6-dimethylphenylamino)-1,3,5-triazin-2-ylamino)benzonitrile] | 1.1 | 1.1 | 6.1 | 0.31 | 5 | 5.2 | 12 | 11 | 123 | 112 | 214 | 236 | 1266 | 30800 | – | – | – | – | –
Cc1cc(C=CC#N)cc(C)c1Nc1nc(Nc2ccc(C#N)cc2)nc(NC(C)C)n1 [T6, 4-((4-((4-(2-cyanovinyl)-2,6-dimethylphenyl)amino)-6-(isopropylamino)-1,3,5-triazin-2-yl)amino)benzonitrile] | 5 | 4.3 | 14 | 1.4 | 6 | 30 | 45 | 10 | 184 | 43 | 85 | 424 | 225 | 24700 | – | – | – | – | –
Cc1cc(C)c(Nc2ccnc(Nc3ccc(C#N)cc3)n2)c(C)c1 [TMC120, reference compound] | 2 | 2 | 5.1 | 1.6 | 1 | 2.5 | 10.8 | 5 | 674 | 337 | >500 | > 1000 | >500 | 2880 | > 5 | high nanomolar activity | no activity | no activity | < 5000
Cc1cc(/C=C/C#N)cc(C)c1Nc1ccnc(Nc2ccc(C#N)cc2)n1 [TMC278, Rilpivirine, reference compound] | 0.72 | 1 | 5.2 | 1.6 | 1 | 0.93 | 2.5 | 3 | 3.6 | 4 | 38 | 27 | 130 | < 10000 | 4 | – | – | – | 7740
